Source: BindingDB's records for patent US20250066350 (Innovstone Therapeutics, 2025)

The compounds below were run against Serine/threonine-protein kinase ATR (Homo sapiens, UniProt Q13535) (assay: ATR Enzyme Assay).
Description: I. Experimental Materials and Instruments1. ATR enzyme (Eurofins Pharma Discovery Services, 14-953M)2. GST-tagged P53 protein (Eurofins Pharma Discovery Services, 14-952M)3. 384-well plate (Geriner bio-one, 784075)4. U-bottom 96-well plate (Geriner bio-one, 651201)5. Anti-phospho-P53 protein antibody labeled with europium cryptate (cisbio, 61P08KAZ)6. Anti-GST antibody linked to d2 (cisbio, 61GSTDLB)7. ATP solution (Sigma, R0441)8. DTT (Sigma, D0632-259)9. HEPES (Sigma, 15630080)10. Microplate reader (Envision 2104 Multilabel Reader)II. Experimental Steps15 nM ATR enzyme, 80 nM P53 protein, 300 nM ATP (the final concentrations were 40 nM and 150 nM, respectively), and small molecule compounds of various concentrations (the final concentrations (nM) of the ten points were 2985.0, 895.5, 298.5, 110.56, 33.17, 11.06, 4.09, 1.23, 0.41 and 0.15, respectively, and the final dimethyl sulfoxide concentration was 0.498%) were mixed and incubated at room temperature for 90 minutes. 10 μL of 2× cocktail buffer was added to the mixture of ATR, compound and substrate in the assay plate (anti-phospho-p53-Eu and anti-GST-d2 were diluted in the assay buffer). The resulting mixture was centrifuged at 1000 rpm for 30 seconds, and incubated overnight at 4° C. in the dark (a total of 20 μl in each well). The FRET signal (endpoint) was measured in the Envision instrument (HTRF 665/612 ratio was calculated at 665 nm emission and 612 nm emission). Data were processed using GraphPad software.

Serine/threonine-protein kinase ATR, sequence (Q13535 whole entry): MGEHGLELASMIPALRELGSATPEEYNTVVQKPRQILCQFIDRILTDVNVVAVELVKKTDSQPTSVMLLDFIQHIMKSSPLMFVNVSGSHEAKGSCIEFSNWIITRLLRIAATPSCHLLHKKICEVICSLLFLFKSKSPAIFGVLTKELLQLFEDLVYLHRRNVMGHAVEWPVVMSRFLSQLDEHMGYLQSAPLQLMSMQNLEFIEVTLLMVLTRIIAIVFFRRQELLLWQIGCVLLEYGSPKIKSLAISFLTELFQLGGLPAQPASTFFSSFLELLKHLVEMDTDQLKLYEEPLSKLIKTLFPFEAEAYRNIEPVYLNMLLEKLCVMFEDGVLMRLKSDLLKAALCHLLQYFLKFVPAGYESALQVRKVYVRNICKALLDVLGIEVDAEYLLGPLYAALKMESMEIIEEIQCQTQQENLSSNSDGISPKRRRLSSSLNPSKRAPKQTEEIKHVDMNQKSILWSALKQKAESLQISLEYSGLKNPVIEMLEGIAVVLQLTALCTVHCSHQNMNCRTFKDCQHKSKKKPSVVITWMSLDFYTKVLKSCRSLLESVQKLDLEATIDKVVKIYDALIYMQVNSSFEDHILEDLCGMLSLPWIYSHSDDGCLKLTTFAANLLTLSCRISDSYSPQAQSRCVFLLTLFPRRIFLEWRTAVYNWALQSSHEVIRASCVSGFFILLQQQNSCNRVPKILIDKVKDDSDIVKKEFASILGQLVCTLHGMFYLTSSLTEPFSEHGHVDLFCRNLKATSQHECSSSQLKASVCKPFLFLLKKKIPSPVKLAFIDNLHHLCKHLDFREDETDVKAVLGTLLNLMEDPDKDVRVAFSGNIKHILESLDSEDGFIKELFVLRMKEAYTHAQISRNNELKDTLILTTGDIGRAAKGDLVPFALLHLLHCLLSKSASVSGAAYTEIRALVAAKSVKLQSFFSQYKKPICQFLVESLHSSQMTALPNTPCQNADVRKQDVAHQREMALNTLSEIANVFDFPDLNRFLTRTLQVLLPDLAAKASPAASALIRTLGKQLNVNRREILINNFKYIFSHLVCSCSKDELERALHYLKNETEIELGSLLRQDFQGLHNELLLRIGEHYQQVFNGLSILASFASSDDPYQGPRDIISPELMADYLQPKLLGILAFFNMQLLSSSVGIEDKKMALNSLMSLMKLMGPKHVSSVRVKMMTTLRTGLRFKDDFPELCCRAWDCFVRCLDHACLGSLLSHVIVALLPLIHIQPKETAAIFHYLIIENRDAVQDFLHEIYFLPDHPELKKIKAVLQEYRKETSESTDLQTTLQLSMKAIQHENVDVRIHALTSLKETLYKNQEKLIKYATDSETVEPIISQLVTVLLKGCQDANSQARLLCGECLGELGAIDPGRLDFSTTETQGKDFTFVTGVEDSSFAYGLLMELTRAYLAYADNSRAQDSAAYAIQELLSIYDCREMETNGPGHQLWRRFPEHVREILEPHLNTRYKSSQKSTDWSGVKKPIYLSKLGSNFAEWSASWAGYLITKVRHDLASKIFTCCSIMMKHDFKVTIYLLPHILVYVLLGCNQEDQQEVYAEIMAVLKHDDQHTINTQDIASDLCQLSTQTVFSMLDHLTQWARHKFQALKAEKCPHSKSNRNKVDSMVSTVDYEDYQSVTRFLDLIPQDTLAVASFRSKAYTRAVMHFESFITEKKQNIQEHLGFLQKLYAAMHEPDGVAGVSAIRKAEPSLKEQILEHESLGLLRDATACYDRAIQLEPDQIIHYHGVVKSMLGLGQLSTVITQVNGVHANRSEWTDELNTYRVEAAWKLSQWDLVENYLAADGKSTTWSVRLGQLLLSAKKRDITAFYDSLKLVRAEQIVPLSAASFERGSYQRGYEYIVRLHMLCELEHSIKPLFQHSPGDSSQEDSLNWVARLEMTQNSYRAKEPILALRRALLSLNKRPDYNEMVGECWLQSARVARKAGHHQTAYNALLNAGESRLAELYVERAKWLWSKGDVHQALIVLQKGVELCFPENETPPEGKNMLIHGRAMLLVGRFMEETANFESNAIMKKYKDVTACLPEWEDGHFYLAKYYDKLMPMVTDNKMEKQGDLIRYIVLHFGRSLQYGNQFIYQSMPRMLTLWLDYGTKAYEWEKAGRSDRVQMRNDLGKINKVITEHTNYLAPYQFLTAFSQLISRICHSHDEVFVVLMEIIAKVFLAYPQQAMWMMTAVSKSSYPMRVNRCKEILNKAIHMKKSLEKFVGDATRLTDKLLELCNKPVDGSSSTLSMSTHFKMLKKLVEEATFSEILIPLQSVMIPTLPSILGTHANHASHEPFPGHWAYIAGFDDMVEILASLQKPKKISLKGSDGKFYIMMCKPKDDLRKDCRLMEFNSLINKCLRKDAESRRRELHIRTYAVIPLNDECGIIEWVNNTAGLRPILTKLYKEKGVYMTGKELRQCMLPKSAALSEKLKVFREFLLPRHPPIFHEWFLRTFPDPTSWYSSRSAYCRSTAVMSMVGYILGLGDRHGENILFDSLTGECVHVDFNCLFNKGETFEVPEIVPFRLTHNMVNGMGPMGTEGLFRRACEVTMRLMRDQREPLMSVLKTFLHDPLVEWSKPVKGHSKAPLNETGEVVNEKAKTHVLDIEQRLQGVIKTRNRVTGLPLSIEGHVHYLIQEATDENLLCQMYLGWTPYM

SMILES	IC50 [nM]
C[C@@H]1COCCN1c1cc(C2(O)CCC3(CC2)CO3)c2cnn(-c3cc[nH]n3)c2n1 (stereo partly specified) [US20250066350, Example 2]	< 10
C[C@@H]1COCCN1c1cc(C#CC2(O)CCCCC2)c2cnn(-c3cc[nH]n3)c2n1 [US20250066350, Example 6]	< 10
C[C@@H]1COCCN1c1cc(C2=CCCOC2)c2cnn(-c3cc[nH]n3)c2n1 [US20250066350, Example 8]	< 10
Cc1ccc(-c2cc(N3CCOC[C@H]3C)nc3c2cnn3-c2cc[nH]n2)cn1 [US20250066350, Example 9]	< 10
C[C@@H]1COCCN1c1cc(C#CC2(O)CCC3(CC2)CC3)c2cnn(-c3ccn[nH]3)c2n1 [US20250066350, Example 10]	< 10
C[C@@H]1COCCN1c1cc(-c2ccnc3[nH]ccc23)c2cnn(-c3cc[nH]n3)c2n1 [US20250066350, Example 11]	< 10
C[C@@H]1COCCN1c1cc(C2CCCOC2)c2cnn(-c3cc[nH]n3)c2n1 (stereo partly specified) [US20250066350, Example 13]	< 10
C[C@@H]1COCCN1c1cc(-c2ccc(NC(=O)c3cccc(S(C)(=O)=O)c3)cc2)c2cnn(-c3cc[nH]n3)c2n1 [US20250066350, Example 145]	< 10
C[C@@H]1COCCN1c1cc(-c2ccc(N3CCCCCC3=O)cc2)c2cnn(-c3cc[nH]n3)c2n1 [US20250066350, Example 153]	< 10
C[C@@H]1COCCN1c1cc(-c2ccc(NC(=O)C3CCOCC3)cc2)c2cnn(-c3cc[nH]n3)c2n1 [US20250066350, Example 155]	< 10
C[C@@H]1COCCN1c1cc(-c2ccc(NC(=O)C3CCNC3)cc2)c2cnn(-c3cc[nH]n3)c2n1 (stereo partly specified) [US20250066350, Example 157]	< 10
C[C@@H]1COCCN1c1cc(-c2ccc(NC(=O)C3CCCNC3)cc2)c2cnn(-c3cc[nH]n3)c2n1 (stereo partly specified) [US20250066350, Example 159]	< 10
CC(=O)N1CCC(C(=O)Nc2ccc(-c3cc(N4CCOC[C@H]4C)nc4c3cnn4-c3cc[nH]n3)cc2)C1 (stereo partly specified) [US20250066350, Example 161]	< 10
C[C@@H]1COCCN1c1cc(-c2ccc(N3CCCCC3=O)nc2)c2cnn(-c3cc[nH]n3)c2n1 [US20250066350, Example 167]	< 10
C[C@@H]1COCCN1c1cc(-c2ccc(N3CCCCC3=O)c(C#N)c2)c2cnn(-c3cc[nH]n3)c2n1 [US20250066350, Example 169]	< 10
C[C@@H]1COCCN1c1cc(-c2ccc3c(c2)CCN3C(=O)c2ccncc2)c2cnn(-c3cc[nH]n3)c2n1 [US20250066350, Example 183]	< 10
C[C@@H]1COCCN1c1cc(-c2ccc(NC(=O)NC34CC5CC(CC(C5)C3)C4)cc2)c2cnn(-c3cc[nH]n3)c2n1 [US20250066350, Example 187]	< 10
C[C@@H]1COCCN1c1cc(-c2ccc(NC(=O)c3cccnc3)cc2F)c2cnn(-c3cc[nH]n3)c2n1 [US20250066350, Example 195]	< 10
C[C@@H]1COCCN1c1cc(-c2ccc(N3CCCCCC3=O)cc2F)c2cnn(-c3cc[nH]n3)c2n1 [US20250066350, Example 197]	< 10
C[C@@H]1COCCN1c1cc(-c2ccc(N3CC4CCC(O4)C3=O)cc2F)c2cnn(-c3cc[nH]n3)c2n1 (stereo partly specified) [US20250066350, Example 199]	< 10
CNC(=O)N(C)c1ccc(-c2cc(N3CCOC[C@H]3C)nc3c2cnn3-c2cc[nH]n2)cc1 [US20250066350, Example 215]	< 10
C[C@@H]1COCCN1c1cc(-c2ccc(NC(=O)C(F)F)cc2)c2cnn(-c3cc[nH]n3)c2n1 [US20250066350, Example 217]	< 10
C[C@@H]1COCCN1c1cc(-c2ccc(N3CCCCC3=O)cc2C(F)(F)F)c2cnn(-c3cc[nH]n3)c2n1 [US20250066350, Example 242]	< 10
CC1CCCN1C(=O)Nc1ccc(-c2cc(N3CCOC[C@H]3C)nc3c2cnn3-c2cc[nH]n2)c(F)c1 (stereo partly specified) [US20250066350, Example 252]	< 10
C[C@@H]1COCCN1c1cc(-c2cc(C#N)c(N3CCCCC3=O)cc2F)c2cnn(-c3cc[nH]n3)c2n1 [US20250066350, Example 259]	< 10

Now from value to compound:

IC50 [nM]	SMILES
< 10	Cc1[nH]nc(C(F)(F)F)c1-c1cc(N2CCOC[C@H]2C)nc2c1cnn2-c1cc[nH]n1 [US20250066350, Example 1]
< 10	Cc1nn(C2CCNCC2)c(C(F)(F)F)c1-c1cc(N2CCOC[C@H]2C)nc2c1cnn2-c1cc[nH]n1 [US20250066350, Example 3]
< 10	Cc1c(-c2cc(N3CCOC[C@H]3C)nc3c2cnn3-c2cc[nH]n2)c(C(F)(F)F)nn1C1CCNCC1 [US20250066350, Example 4]
< 10	COCC#Cc1cc(N2CCOC[C@H]2C)nc2c1cnn2-c1cc[nH]n1 [US20250066350, Example 5]
< 10	C[C@@H]1COCCN1c1cc(-c2ccc(N3CCCCC3=O)cc2)c2cnn(-c3cc[nH]n3)c2n1 [US20250066350, Example 7]
< 10	C[C@@H]1COCCN1c1cc(-c2ccc(N3CC4(COC4)C3)cc2)c2cnn(-c3cc[nH]n3)c2n1 [US20250066350, Example 15]
< 10	C[C@@H]1COCCN1c1cc(C#CC(C)(C)O)c2cnn(-c3cc[nH]n3)c2n1 [US20250066350, Example 16]
< 10	C[C@@H]1COCCN1c1cc(-c2ccc(N3CC4CCC(O4)C3=O)cc2)c2cnn(-c3cc[nH]n3)c2n1 (stereo partly specified) [US20250066350, Example 65]
< 10	CCC(CC)C(=O)Nc1ccc(-c2cc(N3CCOC[C@H]3C)nc3c2cnn3-c2cc[nH]n2)cc1 [US20250066350, Example 151]
< 10	C[C@@H]1COCCN1c1cc(-c2ccc(NC(=O)c3ccccc3)cc2)c2cnn(-c3cc[nH]n3)c2n1 [US20250066350, Example 163]
< 10	C[C@@H]1COCCN1c1cc(-c2ccc(NC(=O)c3ccncn3)cc2)c2cnn(-c3cc[nH]n3)c2n1 [US20250066350, Example 165]
< 10	C[C@@H]1COCCN1c1cc(-c2ccc(N3CCCCC3=O)c(F)c2)c2cnn(-c3cc[nH]n3)c2n1 [US20250066350, Example 171]
< 10	C[C@@H]1COCCN1c1cc(-c2ccc(NC(=O)N3CCCC3)cc2)c2cnn(-c3cc[nH]n3)c2n1 [US20250066350, Example 207]
< 10	C[C@@H]1COCCN1c1cc(C#CC2CCCNC2)c2cnn(-c3ccn[nH]3)c2n1 (stereo partly specified) [US20250066350, Example 209]
< 10	C[C@@H]1COCCN1c1cc(-c2ccc(NC(=O)C3CCN(C)C3)cc2)c2cnn(-c3cc[nH]n3)c2n1 (stereo partly specified) [US20250066350, Example 213]
< 10	C[C@@H]1COCCN1c1cc(-c2ccc(-c3ccnn3C)cc2F)c2cnn(-c3cc[nH]n3)c2n1 [US20250066350, Example 258]
